The NIST ThermoML archive (doi:10.1021/je100776x)
Numbers after ± are expanded uncertainties.

Legend:
[1] = Liquid; for mass density: 298.15 K, 101.33 kPa, Vibrating tube method; for Normal boiling temperature: Ebulliometric method (Recirculating still)
[2] = refractive index (Na D-line) (dimensionless); details: 298.15 K; 101.33 kPa; Liquid; Standard Abbe refractometry

C1CCCCC1 [cyclohexane]
Details	Normal boiling temperature [°C]	mass density [kg/m3]	refractive index
[1]	80.58 ± 0.2	773.82 ± 0.13	–
[2]	–	–	1.4238 ± 0.0005

CC(=O)CC(C)C [4-methylpentan-2-one]
Details	mass density [kg/m3]	refractive index
[1]	796.03 ± 0.14	–
[2]	–	1.3942 ± 0.0005

[1]
Details	vapor or sublimation pressure [kPa]
343.76 K	22.45 ± 0.2
346.51 K	24.97 ± 0.2
349.09 K	27.43 ± 0.21
351.46 K	29.98 ± 0.21
353.65 K	32.46 ± 0.21
355.76 K	35.07 ± 0.21
357.68 K	37.44 ± 0.21
359.54 K	39.99 ± 0.21
361.33 K	42.54 ± 0.21
362.97 K	44.96 ± 0.21
364.61 K	47.52 ± 0.21
366.15 K	50.02 ± 0.21
367.55 K	52.44 ± 0.21
369.05 K	55.08 ± 0.22
370.35 K	57.48 ± 0.22
371.66 K	59.96 ± 0.22
372.96 K	62.51 ± 0.22
374.22 K	65.08 ± 0.22
375.35 K	67.44 ± 0.22
376.56 K	70.07 ± 0.22
377.63 K	72.41 ± 0.22
378.73 K	74.98 ± 0.23
379.78 K	77.41 ± 0.23
380.83 K	79.93 ± 0.23
381.84 K	82.44 ± 0.23
382.84 K	84.96 ± 0.23
383.8 K	87.44 ± 0.23
384.71 K	89.85 ± 0.23
385.67 K	92.47 ± 0.23
386.6 K	95.07 ± 0.24
387.45 K	97.46 ± 0.24
387.82 K	98.52 ± 0.24
388.33 K	99.98 ± 0.24
388.78 K	101.33 ± 0.24

C1=CCCCC1 [cyclohexene]
Details	Normal boiling temperature [°C]	mass density [kg/m3]	refractive index
[1]	82.82 ± 0.21	805.69 ± 0.14	–
[2]	–	–	1.4444 ± 0.0005
